Where “and” joins values, the source holds several entries; their conditions need not be identical. Equal entries are not always repeated.
Test: Thermal stability by Thermogravimetric Analysis (TGA)
Type: physicochemical
Conditions: for T onset: by intersection points of tangents
Method: Briefly, the residual weight (%) of the compounds was measured at different temperatures, including 100° C. for water boiling, and other temperatures corresponding to extrusion processes, and the T onset (° C.) by intersection points of tangents was checked. The results are represented in Table 16 below, and in FIG. 6.

Compound	Residual weight % at different temperatures (100 (° C.))	Residual weight % at different temperatures (190 (° C.))	Residual weight % at different temperatures (210 (° C.))	Residual weight % at different temperatures (250 (° C.))	T onset
CCOC(=O)CNC1=C/C(=N/c2ccccc2)CC(C)(C)C1 [Formula 46]	99.4 w %	99.1 w %	98.4 w %	52.4 w %	215.2 C
CCOC(=O)CNC1=C/C(=N/c2ccc(Nc3ccccc3)cc2)CC(C)(C)C1 [Formula 47]	99.5 w %	99.2 w %	99.0 w %	79.5 w %	226.0 C
CCOC(=O)CNC1=C/C(=N/c2ccc(N3CCOCC3)cc2)CC(C)(C)C1 [Formula 48]	99.2 w %	98.8 w %	97.8 w %	72.9 w %	215.7 C
CCOC(=O)CNC1=C/C(=N/c2ccc(OCc3ccccc3)cc2)CC(C)(C)C1 [Formula 49]	99.3 w %	97.8 w %	97.2 w %	70.2 w %	215.3 C
CCOC(=O)CNC1=C/C(=N/c2ccc(Oc3ccccc3)cc2)CC(C)(C)C1 [Formula 50]	99.2 w %	98.1 w %	97.9 w %	69.3 w %	229.5 C
CCOC(=O)CNC1=C/C(=N/c2ccc(C(C)=O)cc2)CC(C)(C)C1 [Formula 51]	99.5 w %	96.1 w %	85.8 w %	65.1 w %	188.0 C
CCOC(=O)CNC1=C/C(=N/c2ccc(N(C)C)cc2)CC(C)(C)C1 [Formula 52]	95.9 w %	92.4 w %	86.0 w %	63.2 w %	199.1 C
CCOC(=O)CNC1=C/C(=N/c2ccc(OC(F)(F)F)cc2)CC(C)(C)C1 [Formula 53]	99.5 w %	98.6 w %	86.3 w %	40.5 w %	199.3 C
CCOC(=O)CNC1=C/C(=N/c2ccc(NC(=O)OC(C)(C)C)cc2)CC(C)(C)C1 [Formula 54]	98.0 w %	84.0 w %	72.7 w %	60.1 w %	176.7 C
CCOC(=O)CNC1=C/C(=N/c2ccc(Cn3cncn3)cc2)CC(C)(C)C1 [Formula 55]	97.8 w %	96.4 w %	92.2 w %	71.2 w %	205.0 C
CCOC(=O)CNC1=C/C(=N/c2ccc3c(c2)OCCO3)CC(C)(C)C1 [Formula 56]	99.4 w %	98.9 w %	94.3 w %	68.0 w %	207.6 C
CCOC(=O)C1CSC2=C(CC(C)(C)C/C2=N\c2ccc(OCc3ccccc3)cc2)N1 (centres unmarked) [Formula 60]	97.8 w %	85.6 w %	77.0 w %	58.2 w %	168.9 C
CCOC(=O)C1CSC2=C(CC(C)(C)C/C2=N\c2ccc(Oc3ccccc3)cc2)N1 (centres unmarked) [Formula 61]	99.0 w %	98.2 w %	92.6 w %	62.1 w %	205.0 C
CCOC(=O)C1CSC2=C(CC(C)(C)C/C2=N\c2ccc(N3CCOCC3)cc2)N1 (centres unmarked) [Formula 62]	94.5 w %	85.0 w %	75.8 w %	54.0 w %	186.1 C
C#Cc1ccc(/N=C2\CC(C)(C)CC3=C2SCC(C(=O)OCC)N3)cc1 (centres unmarked) [Formula 63]	98.7 w %	97.3 w %	88.4 w %	68.0 w %	197.4 C
CCOC(=O)C1CSC2=C(CC(C)(C)C/C2=N\c2ccc(Nc3ccccc3)cc2)N1 (centres unmarked) [Formula 64]	97.2 w %	87.7 w %	80.3 w %	60.9 w %	187.0 C
CCOC(=O)C1CSC2=C(CC(C)(C)C/C2=N\c2ccc(Cn3cncn3)cc2)N1 (centres unmarked) [Formula 65]	95.3 w %	91.7 w %	89.3 w %	80.3 w %	200.2 C
COC(=O)C(Cc1ccccc1)NC1=C/C(=N/c2ccc(F)cc2)CC(C)(C)C1 (centres unmarked) [Formula 67]	99.4 w %	92.9 w %	82.0 w %	68.1 w %	190.5 C
COC(=O)C(Cc1ccccc1)NC1=C/C(=N/c2ccc(OC)cc2)CC(C)(C)C1 (centres unmarked) [Formula 68]	97.9 w %	93.6 w %	87.3 w %	75.0 w %	197.2 C
CCCCCCCCOc1ccc(/N=C2/C=C(NC(Cc3ccccc3)C(=O)OC)CC(C)(C)C2)cc1 (centres unmarked) [Formula 69]	99.3 w %	95.2 w %	88.0 w %	82.5 w %	193.6 C
C#Cc1ccc(NC2C=C(NCC(=O)OCC)CC(C)(C)C2)cc1 (centres unmarked) [Formula 76]	99.6 w % and 99.5 w %	99.4 w % and 99.2 w %	99.3 w % and 99.0 w %	97.7 w % and 91.7 w %	256.0 C and 248.2 C
CCOC(=O)C1CSC2=C(CC(C)(C)CC2Nc2ccccc2)N1 (centres unmarked) [Formula 77]	99.2 w %	91.2 w %	83.8 w %	66.4 w %	187.4 C

— patent US20240254096A1, “ULTRAVIOLET AND VISIBLE RADIATION ABSORBING COMPOUNDS” (ELKIMIA INC., priority 2021, published 2024)
